According to ChEMBL document CHEMBL5346907, “Discovery of a novel oral type Ⅰ CDK8 inhibitor against acute myeloid leukemia” (Eur J Med Chem, 2023):
Calls of active or inactive are those of the source. The calls are words filed in the database; no cut-off is given here.

What was measured:
[1] = biological target: Cyclin-dependent kinase 2/cyclin E1 (Homo sapiens) (UniProt P24864+P24941); assay: Inhibition of CDK2/Cyclin E1 (unknown origin) at 1 uM preincubated for 10 mins followed by substrate addition measured for 60 to 120 mins by HTRF assay relative to control; type: protein-complex assay; details: time 70-130 min
[2] = biological target: Ephrin type-B receptor 1 (Homo sapiens) (UniProt P54762); assay: Inhibition of EPHB1 (unknown origin) at 1 uM preincubated for 10 mins followed by substrate addition measured for 60 to 120 mins by HTRF assay relative to control; details: time 70-130 min
Chain of Ephrin type-B receptor 1 (Homo sapiens) (P54762 whole entry): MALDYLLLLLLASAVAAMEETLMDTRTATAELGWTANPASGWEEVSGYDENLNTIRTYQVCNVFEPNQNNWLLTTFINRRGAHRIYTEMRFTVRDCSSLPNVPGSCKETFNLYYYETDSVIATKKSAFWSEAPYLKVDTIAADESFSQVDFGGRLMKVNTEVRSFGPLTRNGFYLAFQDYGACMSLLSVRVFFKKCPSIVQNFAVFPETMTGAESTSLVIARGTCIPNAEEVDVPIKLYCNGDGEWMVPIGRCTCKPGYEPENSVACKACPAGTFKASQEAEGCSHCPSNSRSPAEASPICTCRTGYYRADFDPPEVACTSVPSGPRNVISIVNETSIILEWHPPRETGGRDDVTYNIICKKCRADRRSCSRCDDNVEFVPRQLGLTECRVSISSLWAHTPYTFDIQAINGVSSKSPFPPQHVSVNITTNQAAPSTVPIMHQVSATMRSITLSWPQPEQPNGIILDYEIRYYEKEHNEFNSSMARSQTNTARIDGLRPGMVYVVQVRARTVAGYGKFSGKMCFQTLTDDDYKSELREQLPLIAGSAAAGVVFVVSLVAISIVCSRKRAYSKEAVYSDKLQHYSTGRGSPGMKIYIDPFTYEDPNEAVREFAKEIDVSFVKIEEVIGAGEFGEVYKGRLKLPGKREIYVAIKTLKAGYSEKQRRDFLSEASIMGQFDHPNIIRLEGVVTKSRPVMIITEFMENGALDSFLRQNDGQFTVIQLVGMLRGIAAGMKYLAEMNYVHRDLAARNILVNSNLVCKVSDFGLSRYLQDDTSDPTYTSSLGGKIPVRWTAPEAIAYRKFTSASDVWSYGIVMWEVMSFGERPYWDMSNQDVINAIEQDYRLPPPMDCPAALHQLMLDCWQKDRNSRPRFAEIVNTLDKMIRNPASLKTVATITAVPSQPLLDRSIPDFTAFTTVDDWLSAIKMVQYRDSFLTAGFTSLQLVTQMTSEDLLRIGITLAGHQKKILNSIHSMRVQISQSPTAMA

[3] = biological target: NT-3 growth factor receptor (Homo sapiens) (UniProt Q16288); assay: Inhibition of TRKC (unknown origin) at 1 uM preincubated for 10 mins followed by substrate addition measured for 60 to 120 mins by HTRF assay relative to control; details: time 70-130 min
[4] = biological target: Ephrin type-A receptor 3 (Homo sapiens) (UniProt P29320); assay: Inhibition of EPHA3 (unknown origin) at 1 uM preincubated for 10 mins followed by substrate addition measured for 60 to 120 mins by HTRF assay relative to control; details: time 70-130 min
Chain of Ephrin type-A receptor 3 (Homo sapiens) (P29320 whole entry): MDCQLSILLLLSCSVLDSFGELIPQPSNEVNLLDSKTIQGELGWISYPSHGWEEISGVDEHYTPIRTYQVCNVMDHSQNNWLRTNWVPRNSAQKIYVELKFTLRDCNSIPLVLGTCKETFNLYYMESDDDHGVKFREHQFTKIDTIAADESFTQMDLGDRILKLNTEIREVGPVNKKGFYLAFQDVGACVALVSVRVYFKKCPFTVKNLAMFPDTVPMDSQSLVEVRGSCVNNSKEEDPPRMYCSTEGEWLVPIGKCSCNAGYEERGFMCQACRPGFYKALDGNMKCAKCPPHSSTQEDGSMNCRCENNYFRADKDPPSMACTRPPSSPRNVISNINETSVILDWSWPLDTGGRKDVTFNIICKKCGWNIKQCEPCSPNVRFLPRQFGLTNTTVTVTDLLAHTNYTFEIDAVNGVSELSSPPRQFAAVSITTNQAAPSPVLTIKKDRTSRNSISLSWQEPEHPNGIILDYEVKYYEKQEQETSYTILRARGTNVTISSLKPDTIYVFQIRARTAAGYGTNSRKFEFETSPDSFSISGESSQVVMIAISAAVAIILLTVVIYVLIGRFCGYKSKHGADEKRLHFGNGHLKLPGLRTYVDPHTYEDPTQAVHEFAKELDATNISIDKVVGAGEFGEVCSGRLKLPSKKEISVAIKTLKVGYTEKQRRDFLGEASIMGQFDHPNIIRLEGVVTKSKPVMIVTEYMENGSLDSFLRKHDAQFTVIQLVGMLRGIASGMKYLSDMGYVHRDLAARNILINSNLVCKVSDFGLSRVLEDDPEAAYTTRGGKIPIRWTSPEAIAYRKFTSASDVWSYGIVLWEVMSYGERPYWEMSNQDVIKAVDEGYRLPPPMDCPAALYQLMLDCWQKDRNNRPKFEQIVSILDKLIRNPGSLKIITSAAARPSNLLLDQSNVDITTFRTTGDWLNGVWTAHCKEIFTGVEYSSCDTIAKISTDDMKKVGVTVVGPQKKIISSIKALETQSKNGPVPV

C1498 = assay: Downregulation of STAT1 S727 phosphorylation in mouse C1498 cells allografted in AML Balb/C mouse model at 40 to 80 mg/kg, po administered daily for 15 days measured after 3 weeks by IHC analysis; type: functional, organism-based; details: dose 40-80 mg/kg, time 15.0 day
[5] = biological target: CDK7/Cyclin H/MNAT1 (Homo sapiens) (UniProt P51946+P50613+P51948); assay: Inhibition of CDK7/Cyclin H/MAT1 (unknown origin) at 1 uM preincubated for 10 mins followed by substrate addition measured for 60 to 120 mins by HTRF assay relative to control; type: protein-complex assay; details: time 70-130 min
[6] = biological target: CDK3/Cyclin E (Homo sapiens) (UniProt P24864+Q00526); assay: Inhibition of CDK3/CyclinE1 (unknown origin) at 1 uM preincubated for 10 mins followed by substrate addition measured for 60 to 120 mins by HTRF assay relative to control; type: protein-complex assay; details: time 70-130 min
[7] = biological target: Vascular endothelial growth factor receptor 3 (Homo sapiens) (UniProt P35916); assay: Inhibition of FLT4 (unknown origin) at 1 uM preincubated for 10 mins followed by substrate addition measured for 60 to 120 mins by HTRF assay relative to control; details: time 70-130 min
[8] = biological target: Cyclin-dependent kinase 8 (Homo sapiens, UniProt P49336); assay: Binding affinity to CDK8 in human HCT-116 cells assessed as increase in degradation temperature of protein at 5 uM incubated for 6 hrs followed by heating for 4 mins by CETSA assay (reference value: 55 degreeC); type: cell-based; details: time 6.06 hrs
[9] = biological target: CDK12/Cyclin K (Homo sapiens) (UniProt O75909+Q9NYV4); assay: Inhibition of CDK12/Cyclin K (unknown origin) at 1 uM preincubated for 10 mins followed by substrate addition measured for 60 to 120 mins by HTRF assay relative to control; type: protein-complex assay; details: time 70-130 min
[10] = biological target: Vascular endothelial growth factor receptor 2 (Homo sapiens) (UniProt P35968); assay: Inhibition of KDR (unknown origin) at 1 uM preincubated for 10 mins followed by substrate addition measured for 60 to 120 mins by HTRF assay relative to control; details: time 70-130 min
[11] = biological target: Tyrosine-protein kinase FRK (Homo sapiens) (UniProt P42685); assay: Inhibition of FRK (unknown origin) at 1 uM preincubated for 10 mins followed by substrate addition measured for 60 to 120 mins by HTRF assay relative to control; details: time 70-130 min
[12] = biological target: Proto-oncogene tyrosine-protein kinase ROS (Homo sapiens) (UniProt P08922); assay: Inhibition of ROS (unknown origin) at 1 uM preincubated for 10 mins followed by substrate addition measured for 60 to 120 mins by HTRF assay relative to control; details: time 70-130 min
Chain of Proto-oncogene tyrosine-protein kinase ROS (Homo sapiens) (P08922 whole entry): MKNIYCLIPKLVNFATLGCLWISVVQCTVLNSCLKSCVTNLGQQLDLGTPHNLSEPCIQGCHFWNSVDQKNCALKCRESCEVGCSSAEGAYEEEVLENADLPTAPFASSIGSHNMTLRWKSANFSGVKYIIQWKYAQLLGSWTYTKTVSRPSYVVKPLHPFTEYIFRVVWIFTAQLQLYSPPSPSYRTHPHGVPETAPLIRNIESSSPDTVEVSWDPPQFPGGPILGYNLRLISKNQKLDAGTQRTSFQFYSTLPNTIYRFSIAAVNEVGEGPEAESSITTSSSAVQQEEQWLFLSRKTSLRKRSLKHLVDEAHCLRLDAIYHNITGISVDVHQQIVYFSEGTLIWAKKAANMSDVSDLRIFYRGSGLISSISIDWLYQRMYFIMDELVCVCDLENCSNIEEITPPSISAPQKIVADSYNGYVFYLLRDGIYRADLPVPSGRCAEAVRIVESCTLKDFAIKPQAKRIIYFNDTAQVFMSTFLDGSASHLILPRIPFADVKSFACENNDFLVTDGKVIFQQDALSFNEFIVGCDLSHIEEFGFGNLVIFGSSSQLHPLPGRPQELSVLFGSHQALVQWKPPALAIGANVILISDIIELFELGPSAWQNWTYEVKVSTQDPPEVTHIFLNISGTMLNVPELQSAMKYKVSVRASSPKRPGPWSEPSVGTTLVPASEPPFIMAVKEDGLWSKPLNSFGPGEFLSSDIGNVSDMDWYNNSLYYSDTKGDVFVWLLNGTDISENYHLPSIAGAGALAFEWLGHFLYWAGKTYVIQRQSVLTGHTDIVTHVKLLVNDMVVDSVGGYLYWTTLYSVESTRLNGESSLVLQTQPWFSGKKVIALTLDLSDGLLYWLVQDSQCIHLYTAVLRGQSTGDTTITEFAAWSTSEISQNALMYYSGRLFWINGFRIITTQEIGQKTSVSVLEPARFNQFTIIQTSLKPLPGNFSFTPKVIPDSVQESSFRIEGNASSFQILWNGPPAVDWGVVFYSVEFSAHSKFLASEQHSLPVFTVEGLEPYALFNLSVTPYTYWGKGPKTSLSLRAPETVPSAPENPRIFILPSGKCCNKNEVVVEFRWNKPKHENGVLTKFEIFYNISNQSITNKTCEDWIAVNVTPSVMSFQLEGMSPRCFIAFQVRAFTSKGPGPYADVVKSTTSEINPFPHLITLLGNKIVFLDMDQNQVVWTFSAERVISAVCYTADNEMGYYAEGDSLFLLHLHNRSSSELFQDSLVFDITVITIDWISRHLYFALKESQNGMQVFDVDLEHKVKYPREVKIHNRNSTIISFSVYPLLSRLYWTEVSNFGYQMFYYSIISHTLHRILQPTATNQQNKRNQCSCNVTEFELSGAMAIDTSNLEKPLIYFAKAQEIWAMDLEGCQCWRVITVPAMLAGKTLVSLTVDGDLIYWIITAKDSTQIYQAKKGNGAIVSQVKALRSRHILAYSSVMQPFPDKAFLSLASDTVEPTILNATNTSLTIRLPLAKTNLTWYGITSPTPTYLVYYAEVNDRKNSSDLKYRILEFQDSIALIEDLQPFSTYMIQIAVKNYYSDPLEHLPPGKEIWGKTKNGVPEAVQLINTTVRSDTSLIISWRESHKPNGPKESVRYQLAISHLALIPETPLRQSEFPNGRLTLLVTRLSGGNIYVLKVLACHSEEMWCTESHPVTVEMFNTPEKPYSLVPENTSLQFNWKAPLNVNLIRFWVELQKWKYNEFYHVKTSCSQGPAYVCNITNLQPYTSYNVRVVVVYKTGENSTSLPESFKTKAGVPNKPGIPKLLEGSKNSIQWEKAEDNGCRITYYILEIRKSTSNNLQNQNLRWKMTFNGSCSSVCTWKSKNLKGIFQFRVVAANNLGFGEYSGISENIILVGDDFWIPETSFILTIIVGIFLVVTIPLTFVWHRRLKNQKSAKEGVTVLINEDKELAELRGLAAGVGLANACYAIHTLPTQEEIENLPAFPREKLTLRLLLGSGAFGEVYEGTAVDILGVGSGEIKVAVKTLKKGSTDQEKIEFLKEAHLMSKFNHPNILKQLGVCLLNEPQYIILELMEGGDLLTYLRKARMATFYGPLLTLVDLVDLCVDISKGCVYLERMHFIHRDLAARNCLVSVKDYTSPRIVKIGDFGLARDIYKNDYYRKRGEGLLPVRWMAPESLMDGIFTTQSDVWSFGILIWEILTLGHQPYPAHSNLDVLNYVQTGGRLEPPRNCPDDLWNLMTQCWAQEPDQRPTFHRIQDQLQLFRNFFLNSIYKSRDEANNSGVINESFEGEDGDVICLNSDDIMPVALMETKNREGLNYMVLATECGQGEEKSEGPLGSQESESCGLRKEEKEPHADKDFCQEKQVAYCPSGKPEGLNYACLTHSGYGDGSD

[13] = biological target: Tyrosine-protein kinase Fes/Fps (Homo sapiens) (UniProt P07332); assay: Inhibition of FES (unknown origin) at 1 uM preincubated for 10 mins followed by substrate addition measured for 60 to 120 mins by HTRF assay relative to control; details: time 70-130 min
[14] = biological target: CDK1/Cyclin E (Homo sapiens) (UniProt P06493+P24864); assay: Inhibition of CDK1/Cyclin E1 (unknown origin) at 1 uM preincubated for 10 mins followed by substrate addition measured for 60 to 120 mins by HTRF assay relative to control; type: protein-complex assay; details: time 70-130 min
[15] = biological target: Tyrosine-protein kinase Fgr (Homo sapiens) (UniProt P09769); assay: Inhibition of FGR (unknown origin) at 1 uM preincubated for 10 mins followed by substrate addition measured for 60 to 120 mins by HTRF assay relative to control; details: time 70-130 min
[16] = biological target: CDK18/Cyclin Y (Homo sapiens) (UniProt Q07002+Q8ND76); assay: Inhibition of CDK18/CyclinY (unknown origin) at 1 uM preincubated for 10 mins followed by substrate addition measured for 60 to 120 mins by HTRF assay relative to control; type: protein-complex assay; details: time 70-130 min
[17] = biological target: Fibroblast growth factor receptor 3 (Homo sapiens) (UniProt P22607); assay: Inhibition of FGFR3 (unknown origin) at 1 uM preincubated for 10 mins followed by substrate addition measured for 60 to 120 mins by HTRF assay relative to control; details: time 70-130 min
[18] = Acute toxicity in C57BL/6 mouse assessed as histopathological change in spleen at 2000 mg/kg, IG measured for 14 days by H&E staining based analysis; type: organism-based; details: in vivo, po, 336 h, time 14 day
HL-60 = assay: Induction of apoptosis in human HL-60 cells assessed as late apoptotic cells at 1 uM incubated for 48 hrs by annexin V-FITC/PI staining based flow cytometry (reference value: 1.07 %); type: functional
[19] = biological target: Insulin receptor-related protein (Homo sapiens) (UniProt P14616); assay: Inhibition of IRR (unknown origin) at 1 uM preincubated for 10 mins followed by substrate addition measured for 60 to 120 mins by HTRF assay relative to control; details: time 70-130 min
[20] = biological target: CDK2/Cyclin A2 (Homo sapiens) (UniProt P24941+P20248); assay: Inhibition of CDK2/Cyclin A2 (unknown origin) at 1 uM preincubated for 10 mins followed by substrate addition measured for 60 to 120 mins by HTRF assay relative to control; type: protein-complex assay; details: time 70-130 min
[21] = biological target: Protein-tyrosine kinase 6 (Homo sapiens) (UniProt Q13882); assay: Inhibition of BRK (unknown origin) at 1 uM preincubated for 10 mins followed by substrate addition measured for 60 to 120 mins by HTRF assay relative to control; details: time 70-130 min
Chain of Protein-tyrosine kinase 6 (Homo sapiens) (Q13882 whole entry, looked up): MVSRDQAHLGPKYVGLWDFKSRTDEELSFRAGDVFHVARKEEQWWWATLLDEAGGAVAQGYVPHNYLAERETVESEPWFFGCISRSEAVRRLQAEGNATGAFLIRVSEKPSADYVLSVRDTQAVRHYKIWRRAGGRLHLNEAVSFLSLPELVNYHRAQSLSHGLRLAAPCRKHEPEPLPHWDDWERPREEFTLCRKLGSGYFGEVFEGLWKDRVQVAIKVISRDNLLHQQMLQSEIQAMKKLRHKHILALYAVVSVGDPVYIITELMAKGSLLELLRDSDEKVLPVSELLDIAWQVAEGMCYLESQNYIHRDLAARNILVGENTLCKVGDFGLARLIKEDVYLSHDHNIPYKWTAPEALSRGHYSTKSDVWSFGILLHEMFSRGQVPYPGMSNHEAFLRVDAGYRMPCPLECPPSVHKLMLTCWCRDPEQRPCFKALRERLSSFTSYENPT

[22] = biological target: Tyrosine-protein kinase Fyn (Homo sapiens) (UniProt P06241); assay: Inhibition of FYN b (unknown origin) at 1 uM preincubated for 10 mins followed by substrate addition measured for 60 to 120 mins by HTRF assay relative to control; details: time 70-130 min
[23] = Half life in Sprague-Dawley rat at 10 mg/kg, po; type: ADME, organism-based; details: in vivo
[24] = Acute toxicity in C57BL/6 mouse assessed as histopathological change in lung at 2000 mg/kg, IG measured for 14 days by H&E staining based analysis; type: organism-based; details: in vivo, po, 336 h, time 14 day
[25] = AUC (0 to infinity) in Sprague-Dawley rat at 10 mg/kg, po; type: ADME, organism-based; set-up: dose 10 mg/kg, route po; details: in vivo
[26] = Acute toxicity in C57BL/6 mouse assessed as histopathological change in liver at 2000 mg/kg, IG measured for 14 days by H&E staining based analysis; type: organism-based; details: in vivo, po, 336 h, time 14 day

## NC(=O)c1cccc(-c2cnc3[nH]ccc3c2)c1
[1]
  inhibition: 9.01%
[2]
  inhibition: 0%
[3]
  inhibition: 10.8%
[4]
  inhibition: 0%
C1498
  Activity: Active
[5]
  inhibition: 18.9%
[6]
  inhibition: 1.34%
[7]
  inhibition: 10.7%
[8]
  T: 61 °C
[9]
  inhibition: 0.16%
[10]
  inhibition: 31.1%
[11]
  inhibition: 3.82%
[12]
  inhibition: 8.63%
[13]
  inhibition: 26.7%
[14]
  inhibition: 8.89%
[15]
  inhibition: 14.9%
[16]
  inhibition: 3.47%
[17]
  inhibition: 10.8%
[18]
  Activity: Non-Toxic
HL-60
  Activity: 38%
[19]
  inhibition: 16.2%
[20]
  inhibition: 3.99%
[21]
  inhibition: 12.7%
[22]
  inhibition: 24.8%
[23]
  half-life: 1.4 h
[24]
  Activity: Non-Toxic
[25]
  AUC(0-inf): 434 ng·h/mL
[26]
  Activity: Non-Toxic
